Source: ChEMBL document CHEMBL6074631, “Design, synthesis, and evaluation of pyranochromene derivatives as membrane targeting antibacterials against Gram-positive bacteria” (Bioorg Med Chem Lett, 2024)
In brackets after ≈: the same amount, converted by molar mass. Activity calls are given as the source filed them. The rule behind the calls is not given here.

Experiments:
Escherichia coli = assay: Antibacterial activity against Escherichia coli ATCC25922 assessed as reduction in bacterial growth by broth microdilution assay; format: functional
Staphylococcus aureus [1] = assay: Bactericidal activity against Staphylococcus aureus ATCC43300 at 2 to 16 ug/ml by time kill assay; format: functional, organism-based; details: dose 2-16 µg/ml, time <= 12.0 hrs
Staphylococcus aureus [2] = assay: Bactericidal activity against Staphylococcus aureus ATCC43300 assessed as reduction in bacterial count at 16 ug/ml measured within 4 hrs by time kill assay relative to control; format: functional; parameters: scale not given: the % may be the effect or the level left; details: dose 16 µg/ml
Staphylococcus aureus [3] = assay: Bactericidal activity against Staphylococcus aureus ATCC43300 assessed as log reduction in CFU at 16 ug/ml by time kill assay; format: functional; details: dose 16 µg/ml
Cell membrane [4] = assay: Induction of cell membrane disruption in Staphylococcus aureus ATCC43300 assessed as increase in DNA leakage; format: subcellular; details: dose 2-16 µg/ml
Staphylococcus aureus [5] = assay: Antibacterial activity against Staphylococcus aureus ATCC25923 assessed as reduction in bacterial growth by broth microdilution assay; format: functional
Cell membrane [6] = assay: Induction of cytoplasmic membrane depolarization in Staphylococcus aureus ATCC43300 assessed as fold increase in fluorescence signal at 16 ug/ml measured at 20 mins DiSC3(5) dye-based fluorescence assay; format: subcellular; details: dose 16.0 µg/ml
Cell membrane [7] = assay: Disruption of cell membrane integrity in Staphylococcus aureus ATCC43300 assessed as red fluorescence by DAPI staining based fluorescence assay; format: subcellular
[8] = tested on: Staphylococcus epidermidis; assay: Antibacterial activity against vancomycin-susceptible Staphylococcus epidermidis ATCC12228 assessed as reduction in bacterial growth by broth microdilution assay; format: functional
Klebsiella pneumoniae = assay: Antibacterial activity against erythromycin-susceptible Klebsiella pneumoniae ATCC10031 assessed as reduction in bacterial growth by broth microdilution assay; format: functional
Cell membrane [9] = assay: Induction of cell membrane permeabilization in Staphylococcus aureus ATCC43300 assessed as fold increase in fluorescence intensity at 16 ug/ml by propidium iodide dye-based fluorescence assay; format: subcellular; details: dose 16.0 µg/ml
Cell membrane [10] = assay: Induction of cytoplasmic membrane depolarization in Staphylococcus aureus ATCC43300 assessed as fold increase in fluorescence signal measured upto 20 mins DiSC3(5) dye-based fluorescence assay; format: subcellular; details: dose 2-16 µg/ml
Bacillus subtilis = assay: Antibacterial activity against […] Bacillus subtilis ATCC9372 assessed as reduction in bacterial growth by broth microdilution assay; format: functional
Cell membrane [11] = assay: Induction of cell membrane disruption in Staphylococcus aureus ATCC43300 assessed as fold increase in DNA leakage at 16 ug/ml; format: subcellular; details: dose 16.0 µg/ml
Enterococcus faecalis = assay: Antibacterial activity against penicillin-susceptible Enterococcus faecalis ATCC29212 assessed as reduction in bacterial growth by broth microdilution assay; format: functional
Staphylococcus aureus [12] = assay: Antibacterial activity against Staphylococcus aureus ATCC43300 measured after 20 passages; format: functional, organism-based
Pseudomonas aeruginosa = assay: Antibacterial activity against penicillin-susceptible Pseudomonas aeruginosa ATCC27853 assessed as reduction in bacterial growth by broth microdilution assay; format: functional
Cell membrane [13] = assay: Induction of cell membrane disruption in Staphylococcus aureus ATCC43300 assessed as increase in protein leakage; format: subcellular; details: dose 2-16 µg/ml
Staphylococcus aureus [14] = assay: Drug resistance, ratio of MIC for Staphylococcus aureus ATCC43300 after 20 passages exposure to MIC for Staphylococcus aureus ATCC43300 after first exposure; format: functional
Staphylococcus aureus [15] = assay: Bactericidal activity against Staphylococcus aureus ATCC43300 assessed as eradication of bacterial cell at 16 ug/ml measured within 8 hrs by time kill assay relative to control; format: functional; details: dose 16 µg/ml
Staphylococcus aureus [16] = assay: Antibacterial activity against Staphylococcus aureus ATCC31007 assessed as reduction in bacterial growth by broth microdilution assay; format: functional
[17] = Hemolytic activity in RBC (unknown origin) assessed as hemolysis; format: toxicity, cell-based
Staphylococcus aureus [18] = assay: Antibacterial activity against […] Staphylococcus aureus ATCC43300 assessed as reduction in bacterial growth by broth microdilution assay; format: functional
Cell membrane [19] = assay: Disruption of cell membrane integrity in Staphylococcus aureus ATCC43300 assessed as blue fluorescence by DAPI staining based fluorescence assay; format: subcellular
Cell membrane [20] = assay: Induction of cell membrane disruption in Staphylococcus aureus ATCC43300 assessed as fold increase in protein leakage at 16 ug/ml; format: subcellular; details: dose 16.0 µg/ml
Cell membrane [21] = assay: Induction of cell membrane permeabilization in Staphylococcus aureus ATCC43300 assessed as increase in fluorescence intensity by propidium iodide dye-based fluorescence assay; format: subcellular; details: dose 2-16 µg/ml
Acinetobacter baumannii = assay: Antibacterial activity against Acinetobacter baumannii ATCC19606 assessed as reduction in bacterial growth by broth microdilution assay; format: functional
Staphylococcus aureus [22] = assay: Bactericidal activity against Staphylococcus aureus ATCC43300 measured upto 12 hrs by time kill assay; format: functional, organism-based; details: dose 2-16 µg/ml
Staphylococcus aureus [23] = assay: Drug resistance, ratio of MIC for Staphylococcus aureus ATCC43300 after 18 passages exposure to MIC for Staphylococcus aureus ATCC43300 after first exposure; format: functional

SMILES: CC(=O)c1c(OCC(=O)NCCN(C)C)c2c(c3c1OC(C)(CCC=C(C)C)C=C3)OC(C)(CCC=C(C)C)C=C2 (stereo not given)
- MIC (Escherichia coli): > 128 mg/L
- Activity (Staphylococcus aureus [1]): Time-dependent-effect
- Activity (Staphylococcus aureus [2]): 99.9%
- log(activity) (Staphylococcus aureus [3]): 8.78
- Activity (Cell membrane [4]): Dose-dependent-effect
- MIC (Staphylococcus aureus [5]): 4 mg/L (≈ 7.08 µM)
- fold change (FC) (Cell membrane [6]): 4.7
- Activity (Cell membrane [7]): Active
- MIC [8]: 1 mg/L (≈ 1.77 µM)
- MIC (Klebsiella pneumoniae): > 128 mg/L
- fold change (FC) (Cell membrane [9]): 2.3
- Activity (Cell membrane [10]): Dose-dependent-effect
- MIC (Bacillus subtilis): 2 mg/L (≈ 3.54 µM)
- fold change (FC) (Cell membrane [11]): 6.7
- MIC (Enterococcus faecalis): 1 mg/L (≈ 1.77 µM)
- Activity (Staphylococcus aureus [12]): inactive
- MIC (Pseudomonas aeruginosa): > 128 mg/L
- Activity (Cell membrane [13]): Dose-dependent-effect
- fold change (FC) (Staphylococcus aureus [14]): 4
- Activity (Staphylococcus aureus [15]): 100%
- MIC (Staphylococcus aureus [16]): 2 mg/L (≈ 3.54 µM)
- HC90 ([17]; rbc): 205.8 µg/mL
- HC50 ([17]; red blood cells): 112 µg/mL
- MIC (Staphylococcus aureus [18]): 2 mg/L (≈ 3.54 µM)
- Activity (Cell membrane [19]): Active
- fold change (FC) (Cell membrane [20]): 6.3
- Activity (Cell membrane [21]): Dose-dependent-effect
- MIC (Acinetobacter baumannii): 128 mg/L (≈ 227 µM)
- Activity (Staphylococcus aureus [22]): Dose-dependent-effect

SMILES: CCn1cc(C(=O)O)c(=O)c2cc(F)c(N3CCNCC3)cc21 [NORFLOXACIN]
- fold change (FC) (Staphylococcus aureus [23]): 256
